Laboratory results reported in PubChem BioAssay AID1918993 (Molecular Pharmacology Branch, DTP, NCI, 2023).
Several values for one entry are separate records, joined by “and”; a condition that tells them apart may be missing. Equal values may be shown once.

Tested on: 233499-124-R-J3-PDC complex spheroid growth
Assay: Anticancer human tumor 233499-124-R-J3-PDC patient-derived colon adenocarcinoma cell line growth inhibition [AhR]
Settings: for viability, T/C: stronger effect = lower value
Procedure, shortened: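 Complex tumor spheroids co-cultured with HUVEC and human MSC stroma; AhR antagonists tested in combination with standard-of-care and investigational agents. Top concentration at or near clinical Cmax (else 10 microM), half-log dilutions; growth expressed as percent test/control.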

[1] = curve of first compound, second compound 0.1 µM
[2] = curve of first compound, second compound 0.316 µM
[3] = curve of first compound, second compound 1 µM
[4] = curve of first compound, second compound 3.16 µM
[5] = curve of first compound, second compound 10 µM
[6] = second compound 0.1 µM, first compound 0.0316 µM
[7] = second compound 0.1 µM, first compound 0.1 µM
[8] = second compound 0.1 µM, first compound 0.316 µM
[9] = second compound 0.1 µM, first compound 1 µM
[10] = second compound 0.1 µM, first compound 3.16 µM
[11] = second compound 0.1 µM, first compound 10 µM
[12] = second compound 0.316 µM, first compound 0.0316 µM
[13] = second compound 0.316 µM, first compound 0.1 µM
[14] = second compound 0.316 µM, first compound 0.316 µM
[15] = second compound 0.316 µM, first compound 1 µM
[16] = second compound 0.316 µM, first compound 3.16 µM
[17] = second compound 0.316 µM, first compound 10 µM
[18] = second compound 1 µM, first compound 0.0316 µM
[19] = second compound 1 µM, first compound 0.1 µM
[20] = second compound 1 µM, first compound 0.316 µM
[21] = second compound 1 µM, first compound 1 µM
[22] = second compound 1 µM, first compound 3.16 µM
[23] = second compound 1 µM, first compound 10 µM
[24] = second compound 3.16 µM, first compound 0.0316 µM
[25] = second compound 3.16 µM, first compound 0.1 µM
[26] = second compound 3.16 µM, first compound 0.316 µM
[27] = second compound 3.16 µM, first compound 1 µM
[28] = second compound 3.16 µM, first compound 3.16 µM
[29] = second compound 3.16 µM, first compound 10 µM
[30] = second compound 10 µM, first compound 0.0316 µM
[31] = second compound 10 µM, first compound 0.1 µM
[32] = second compound 10 µM, first compound 0.316 µM
[33] = second compound 10 µM, first compound 1 µM
[34] = second compound 10 µM, first compound 3.16 µM
[35] = second compound 10 µM, first compound 10 µM
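Note: spheroids exposed to agents for seven days before reading.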

Compound `COc1cc(Nc2ncc3c(n2)-c2ccc(Cl)cc2C(c2c(F)cccc2OC)=NC3)ccc1C(=O)O` + Cc1ccccc1N=Nc1ccc(NC(=O)c2ccnn2C)c(C)c1 has an IC50 [1] greater than 10 µM, an IC50 [2] greater than 10 µM and an IC50 [3] greater than 10 µM. The IC50 [4] was greater than 10 µM, the IC50 [5] was greater than 10 µM and the viability, T/C [6] was 92.5%. It also gave a viability, T/C [7] of 81.9%, a viability, T/C [8] of 96.3% and a viability, T/C [9] of 98.5%. The viability, T/C [10] was 86.5%, the viability, T/C [11] was 96.7% and the viability, T/C [12] was 83.1%. It also gave a viability, T/C [13] of 77.5%, a viability, T/C [14] of 96.4% and a viability, T/C [15] of 93.1%. It also gave a viability, T/C [16] of 96.6%, a viability, T/C [17] of 84.2% and a viability, T/C [18] of 89%. It also gave a viability, T/C [19] of 93.2%, a viability, T/C [20] of 90.4% and a viability, T/C [21] of 87.2%. For the same compound, the viability, T/C [22] was 97.5%, the viability, T/C [23] was 92.1% and the viability, T/C [24] was 91.5%. It also gave a viability, T/C [25] of 80.4%, a viability, T/C [26] of 102% and a viability, T/C [27] of 105%. It also gave a viability, T/C [28] of 85.2%, a viability, T/C [29] of 100% and a viability, T/C [30] of 109%. The viability, T/C [31] was 101%, the viability, T/C [32] was 102% and the viability, T/C [33] was 101%. For the same compound, the viability, T/C [34] was 116% and the viability, T/C [35] was 115%.
With `Nc1ncn(C2CC(O)C(CO)S2)c(=O)n1` (configuration not stated) the viability, T/C (compound 0.000949 µM) was 94.5% and 95.6% and 104%, the viability, T/C (compound 0.003 µM) was 108% and 104% and 118% and the viability, T/C (compound 0.00949 µM) was 102% and 112% and 110%. For the same compound, the viability, T/C (compound 0.03 µM) was 107% and 101% and 116%, the viability, T/C (compound 0.0949 µM) was 103% and 105% and 100% and the viability, T/C (compound 0.3 µM) was 98.6% and 109% and 104%. The IC50 (curve of compound) was greater than 0.3 µM.
`CCN(c1cc(-c2ccc(CN3CCOCC3)cc2)cc(C(=O)NCc2c(C)cc(C)[nH]c2=O)c1C)C1CCOCC1` + Cc1cncc(-c2nc(NCCc3c[nH]c4ccccc34)c3ncn(C(C)C)c3n2)c1 was tested, and the IC50 [1] was greater than 3 µM, the IC50 [2] was greater than 3 µM and the IC50 [3] was greater than 3 µM. The IC50 [4] was greater than 3 µM, the IC50 [5] was less than 0.00949 µM and the viability, T/C (second compound 0.1 µM, first compound 0.00949 µM) was 99.1%. It also gave a viability, T/C (second compound 0.1 µM, first compound 0.03 µM) of 101%, a viability, T/C (second compound 0.1 µM, first compound 0.0949 µM) of 76% and a viability, T/C (second compound 0.1 µM, first compound 0.3 µM) of 82.3%. For the same compound, the viability, T/C (second compound 0.1 µM, first compound 0.949 µM) was 95.6%, the viability, T/C (second compound 0.1 µM, first compound 3 µM) was 90.3% and the viability, T/C (second compound 0.316 µM, first compound 0.00949 µM) was 108%. For the same compound, the viability, T/C (second compound 0.316 µM, first compound 0.03 µM) was 109%, the viability, T/C (second compound 0.316 µM, first compound 0.0949 µM) was 94.6% and the viability, T/C (second compound 0.316 µM, first compound 0.3 µM) was 100%. The viability, T/C (second compound 0.316 µM, first compound 0.949 µM) was 106%, the viability, T/C (second compound 0.316 µM, first compound 3 µM) was 94.6% and the viability, T/C (second compound 1 µM, first compound 0.00949 µM) was 80.3%. For the same compound, the viability, T/C (second compound 1 µM, first compound 0.03 µM) was 79.6%, the viability, T/C (second compound 1 µM, first compound 0.0949 µM) was 75.7% and the viability, T/C (second compound 1 µM, first compound 0.3 µM) was 78.6%. It also gave a viability, T/C (second compound 1 µM, first compound 0.949 µM) of 80.5%, a viability, T/C (second compound 1 µM, first compound 3 µM) of 84% and a viability, T/C (second compound 3.16 µM, first compound 0.00949 µM) of 76.4%. For the same compound, the viability, T/C (second compound 3.16 µM, first compound 0.03 µM) was 76.9%, the viability, T/C (second compound 3.16 µM, first compound 0.0949 µM) was 82.4% and the viability, T/C (second compound 3.16 µM, first compound 0.3 µM) was 89.5%. The viability, T/C (second compound 3.16 µM, first compound 0.949 µM) was 73.2%, the viability, T/C (second compound 3.16 µM, first compound 3 µM) was 76% and the viability, T/C (second compound 10 µM, first compound 0.00949 µM) was 16.1%. It also gave a viability, T/C (second compound 10 µM, first compound 0.03 µM) of 21%, a viability, T/C (second compound 10 µM, first compound 0.0949 µM) of 9.73% and a viability, T/C (second compound 10 µM, first compound 0.3 µM) of 10.7%. It also gave a viability, T/C (second compound 10 µM, first compound 0.949 µM) of 16.7% and a viability, T/C (second compound 10 µM, first compound 3 µM) of 3.73%.
For `O=C(c1cc(Cc2n[nH]c(=O)c3ccccc23)ccc1F)N1CCN(C(=O)C2CC2)CC1` + Cc1cncc(-c2nc(NCCc3c[nH]c4ccccc34)c3ncn(C(C)C)c3n2)c1, the IC50 [1] was greater than 10 µM, the IC50 [2] was greater than 10 µM and the IC50 [3] was greater than 10 µM. The IC50 [4] was greater than 10 µM, the IC50 [5] was less than 0.0316 µM and the viability, T/C [6] was 115%. The viability, T/C [7] was 105%, the viability, T/C [8] was 100% and the viability, T/C [9] was 102%. For the same compound, the viability, T/C [10] was 98.6%, the viability, T/C [11] was 105% and the viability, T/C [12] was 106%. The viability, T/C [13] was 99.3%, the viability, T/C [14] was 96.3% and the viability, T/C [15] was 95.5%. For the same compound, the viability, T/C [16] was 103%, the viability, T/C [17] was 92.3% and the viability, T/C [18] was 87.5%. For the same compound, the viability, T/C [19] was 97.2%, the viability, T/C [20] was 93.9% and the viability, T/C [21] was 71.5%. For the same compound, the viability, T/C [22] was 87.5%, the viability, T/C [23] was 86% and the viability, T/C [24] was 74.8%. For the same compound, the viability, T/C [25] was 86.4%, the viability, T/C [26] was 76.3% and the viability, T/C [27] was 83.6%. For the same compound, the viability, T/C [28] was 85.9%, the viability, T/C [29] was 90.1% and the viability, T/C [30] was 5.45%. For the same compound, the viability, T/C [31] was 6.91%, the viability, T/C [32] was 19.4% and the viability, T/C [33] was 16.2%. The viability, T/C [34] was 8.78% and the viability, T/C [35] was 19.1%.
`Nc1ccccc1NC(=O)c1ccc(CNC(=O)OCc2cccnc2)cc1` + CC(CO)NC(=O)c1cc(-c2ccc(Cl)cc2)nn(-c2cnn(C)c2)c1=O gave an IC50 [1] of 2.28 µM, an IC50 [2] of 2.24 µM and an IC50 [3] of 3.93 µM. It also gave an IC50 [4] of 1.94 µM, an IC50 [5] of 1.32 µM and a viability, T/C [6] of 97.6%. For the same compound, the viability, T/C [7] was 92.2%, the viability, T/C [8] was 87.1% and the viability, T/C [9] was 91%. It also gave a viability, T/C [10] of 33.8%, a viability, T/C [11] of 3.08% and a viability, T/C [12] of 102%. It also gave a viability, T/C [13] of 91.4%, a viability, T/C [14] of 99% and a viability, T/C [15] of 78.2%. It also gave a viability, T/C [16] of 37.9%, a viability, T/C [17] of 5% and a viability, T/C [18] of 88.8%. For the same compound, the viability, T/C [19] was 96.7%, the viability, T/C [20] was 105% and the viability, T/C [21] was 96%. It also gave a viability, T/C [22] of 60.7%, a viability, T/C [23] of 3.71% and a viability, T/C [24] of 91.9%. It also gave a viability, T/C [25] of 105%, a viability, T/C [26] of 101% and a viability, T/C [27] of 90.8%. The viability, T/C [28] was 19.7%, the viability, T/C [29] was 1.49% and the viability, T/C [30] was 97.1%. It also gave a viability, T/C [31] of 82.9%, a viability, T/C [32] of 87.9% and a viability, T/C [33] of 62%. For the same compound, the viability, T/C [34] was 11.8% and the viability, T/C [35] was 0.6%.
